Reference: article PMC6920949, “Muscle to Brain Partitioning as Measure of Transporter-Mediated Efflux at the Rat Blood–Brain Barrier and Its Implementation into Compound Optimization in Drug Discovery” (Pharmaceutics, 2019)

Legend:
[1] = rat, in vivo
Method: (§1) Animal experiments were performed in male rats of different strains (Han Wistar, Sprague Dawley, Lister Hooded, Long-Evans, supplied by commercial breeders, typically Charles River, Sulzfeld, Germany or Janvier Labs, Saint-Berthevin Cedex, France). Only two studies were done in female animals. Typically three animals were used per experiment. […] Compounds were dosed orally, intravenously, subcutaneously, or intraperitoneally. For tissue sampling animals were anaesthetized with Ketamin/Inactin. After dissection of the cisterna magna, approximately 50 µL CSF was collected via a 0.4-mm cannula. Blood was collected from the retroorbital plexus into K3EDTA coated vials (Sarstedt, Nümbrecht, Germany) and plasma was collected by centrifugation for 5 min at approximately 5000 rpm. Animals were exsanguinated via the vena cava. The femoral muscle was prepared. A small piece (approximately 0.2–0.5 g) was excised, rinsed in cold physiological NaCl, and the remaining fat and superficial vessels were removed. For brain isolation, skin and muscle of head and neck were removed. The cranium was opened with a bone trimmer by one central and two lateral incisions. […]
(§2) Prior to bioanalysis plasma samples and dialysates were spiked with internal standard solution and diluted with acetonitrile for protein precipitation. […] Quantification was performed using external calibration.

[2] = design: method as in PMID 21934030; settings: rat, brain slice method; cited from earlier work
[3] = Kp,br/mu: brain to skeletal muscle partitioning, tissue distribution study in rats; settings: rat, brain and skeletal (femoral) muscle
Method: as §1, §2

[4] = design: method as in PMID 28880093; settings: dog cerebrum, cerebellum, brain stem; cited from earlier work
[5] = Kp,uu,brain by brain homogenate method; assay type: in vivo; settings: brain and plasma (unbound), rat, Table 4, read-out: Kp,uu,brain(hom) (This publication)
From the text: Under steady-state conditions, Kp,uu,brain defines the ratio between the unbound drug concentration in brain (Cu,brain), i.e., the interstitial fluid (ISF) and the unbound drug concentration in plasma(Cu,plasma) (Equation (1)). Kp,uu,brain = Cu,brain/Cu,plasma(1) Using microdialysis, the concentrations in brain ISF can be determined. […] Kp,uu,brain = Cu,brain/Cu,plasma = (Cbrain × fu,brain)/(Cplasma × fu,plasma) = Kp,brain × (fu,brain/fu,plasma)(2) where Cplasma and Cbrain are the plasma and brain concentration, respectively. Kp is the partition coefficient of total drug in brain and plasma:Kp,brain = Cbrain/Cplasma(3)
Animal experiments were performed in male rats of different strains (Han Wistar, Sprague Dawley, Lister Hooded, Long-Evans, supplied by commercial breeders, typically Charles River, Sulzfeld, Germany or Janvier Labs, Saint-Berthevin Cedex, France). Only two studies were done in female animals. Typically three animals were used per experiment. […] Compounds were dosed orally, intravenously, subcutaneously, or intraperitoneally. […]
Binding of research compounds to plasma protein and tissue homogenates was determined using the equilibrium dialysis method as described previously [9, 15]. […] Unbound plasma concentration (fu,plasma) was calculated as:fu,plasma = (Cplasma − Cbuffer)/Cplasma,(7) where Cplasma and Cbuffer are the plasma and buffer concentration, respectively.

[6] = compounds without blood-brain barrier efflux; cited from earlier work

In the case of `NC(=O)N1c2ccccc2C=Cc2ccccc21` [Carbamazapine], the “Kp,br/mu (This publication)” value [1] is listed as 1.44 and the “Kp,uu,brain (Literature)” value [2] is listed as 0.771.

In the case of `C=C[C@H]1C[N@@]2CC[C@H]1C[C@@H]2[C@@H](O)c1ccnc2ccc(OC)cc12` [Quinidine], the Kp [3] is listed as 0.056, the “effect of up to 5-fold P-gp and BCRP expression differences between brain regions on Kp,brain” value [4] is listed as “did not affect” and the Kp uu [5] is listed as 0.0276.

In the case of `Cc1nnc2n1-c1sc(CCC(=O)N3CCOCC3)cc1C(c1ccccc1Cl)=NC2` [apafant], the “effect of up to 5-fold P-gp and BCRP expression differences between brain regions on Kp,brain” value [4] is listed as “did not affect”.

In the case of `Cc1ncc2n1-c1ccc(Cl)cc1C(c1ccccc1F)=NC2` [midazolam], the “distribution into brain and skeletal muscle” value [6] is listed as “very similar distributions into brain and skeletal muscle”.
